Test results published in the NIST ThermoML archive (doi:10.1021/acs.jced.6b00867).

Legend:
[1] = 352.2 K; Liquid; Ebulliometric method (Recirculating still)
[2] = refractive index (Na D-line) (dimensionless); conditions: 101 kPa, Liquid, Standard Abbe refractometry
[3] = refractive index (Na D-line) (dimensionless); xn = mol fraction of the nth substance listed; conditions: 101 kPa, Liquid, Standard Abbe refractometry

O=CO [formic acid]
Conditions	vapor or sublimation pressure [kPa]
[1]	51

[2]
Conditions	refractive index
293.2 K	1.3714
298.2 K	1.3699

O=CO [formic acid] + CC1CCC(=O)O1
[3], x1 = 1
Conditions	refractive index
293.2 K	1.3714
298.2 K	1.3699

CC1CCC(=O)O1 (stereo not drawn) [γ-valerolactone]
[2]
Conditions	refractive index
293.2 K	1.4339
298.2 K	1.4316

CC1CCC(=O)O1 (stereo not drawn) [γ-valerolactone] + O=CO
refractive index, [3]
Conditions	293.2 K	298.2 K
x2 = 0	1.4339	1.4316
x2 = 0.0697	1.4314	1.4292
x2 = 0.1233	1.4295	1.4272
x2 = 0.2013	1.4265	1.4245
x2 = 0.3394	1.421	1.4191
x2 = 0.4898	1.4138	1.4118
x2 = 0.593	1.4078	1.4058
x2 = 0.6258	1.4056	1.4036
x2 = 0.6744	1.4021	1.4002
x2 = 0.7799	1.3941	1.3921
x2 = 0.8539	1.3875	1.3856
x2 = 0.8902	1.3839	1.3821
x2 = 0.9828	1.3739	1.3719
